In brackets after ≈: the same amount, converted by molar mass.
Columns and labels:
[1] = system: M. tuberculosis H37Rv expressing the green fluorescent protein (H37Rv-GFP); assay: microbe, parasite or virus in culture; assay type: cell-based; settings: for MIC50: Mycobacterium tuberculosis, H37RV, 120 h, read-out: QUM (MIC50)
[2] = system: Raw 264.7 cells infected with H37Rv-GFP; assay: microbe, parasite or virus in culture; assay type: cell-based, M. tuberculosis; settings: for MIC50: Mycobacterium tuberculosis, H37RV, 120 h, read-out: QIM (MIC50)

Structure (SMILES) | MIC50 [1] [µM] | MIC50 [2] [µM] | QUM (MIC50, uM) [1] | QIM (MIC50, uM) [2]
CCN(CCOC)c1nc2sc(C(=O)Nc3ccc4oc(C)nc4c3)cc2s1 [Compound 269] | > 20 | > 20 |  | 
Cc1nc2cc(NC(=O)c3cc4sc(N5CCC(C(O)c6ccc(Cl)cc6)CC5)nc4s3)ccc2o1 (stereo not shown) [Compound 206] | > 20 | < 1 |  | 
CN(C)c1nc2sc(C(=O)Nc3ccc4oc(-c5ccc(F)cc5)nc4c3)cc2s1 [Compound 210] | > 20 | > 20 |  | 
COc1ccc(NC(=O)c2cc3nc(N4CCOCC4)sc3s2)cc1 [Compound 27] | > 20 | 1 to 20 (≈ 0.375 to 7.51 µg/mL) |  | 
Cn1ccc(-c2ccc(NC(=O)c3cc4sc(N5CCNCC5)nc4s3)cc2)n1 [Compound 343] | 1 to 20 (≈ 0.425 to 8.49 µg/mL) | < 1 |  | 
CN1CCC(Nc2nc3sc(C(=O)Nc4ccc(F)cc4)cc3s2)CC1 [Compound 313] | > 20 | 1 to 20 (≈ 0.391 to 7.81 µg/mL) |  | 
O=C(Nc1ccc(N2CCC(Oc3ccc(Cl)cc3)CC2)cc1)c1cc2sc(N3CCOCC3)nc2s1 [Compound 193] | > 20 | < 1 |  | 
Cc1nc2cc(NC(=O)c3cc4sc(NCCN5CCN(C)CC5)nc4s3)ccc2o1 [Compound 326] | > 20 | > 20 |  | 
Cc1nc2cc(NC(=O)c3cc4sc(N(C)CCCO)nc4s3)ccc2o1 [Compound 238] | 1 to 20 (≈ 0.403 to 8.05 µg/mL) | < 1 |  | 
C#CCOc1ccc(-c2ccc(NC(=O)c3cc4sc(N(C)CCOC)nc4s3)cc2)cc1 [Compound 358] | < 1 | < 1 |  | 
O=C(Nc1ccc(-c2ccc(F)cn2)cc1)c1cc2sc(NCCCN3CCOCC3)nc2s1 [Compound 328] | < 1 | < 1 |  | 
O=C(Nc1ccc(CN2CCN(c3ccc(F)cc3)CC2)cc1)c1cc2sc(N3CCOCC3)nc2s1 [Compound 211] | < 1 | < 1 |  | 
COc1ccc(-c2ccc(NC(=O)c3cc4sc(N5CCC(C(=O)N(C)C)CC5)nc4s3)cc2)cn1 [Compound 213] | < 1 | < 1 |  | 
O=C(Nc1ccc(F)cc1)c1cc2sc(NCC(O)C(F)(F)F)nc2s1 (stereo not shown) [Compound 330] | 1 to 20 (≈ 0.405 to 8.11 µg/mL) | < 1 |  | 
O=C(Nc1ccc(F)cc1)c1cc2sc(N3CCC(C(O)c4ccc(Cl)cc4)CC3)nc2s1 (stereo not shown) [Compound 247] | 1 to 20 (≈ 0.502 to 10 µg/mL) | < 1 |  | 
CN(C)C(=O)C1CCN(c2nc3sc(C(=O)Nc4ccc5oc(Cc6ccc(F)cc6)nc5c4)cc3s2)CC1 [Compound 219] | 1 to 20 (≈ 0.564 to 11.3 µg/mL) | < 1 |  | 
CN(CCCO)c1nc2sc(C(=O)Nc3ccc(-c4ccc(F)nc4)cc3)cc2s1 [Compound 291] | < 1 | < 1 |  | 
COc1ccc(CN2CCN(c3nc4sc(C(=O)Nc5ccc(OC)cc5)cc4s3)CC2)cc1 [Compound 91] | > 20 | < 1 |  | 
Cc1ccc(-c2ccc(NC(=O)c3cc4sc(N5CCC(C(=O)N(C)C)CC5)nc4s3)cc2)nc1 [Compound 217] | 1 to 20 (≈ 0.506 to 10.1 µg/mL) | < 1 |  | 
Cc1nc2cc(NC(=O)c3cc4sc(NCCC5CCOCC5)nc4s3)ccc2o1 [Compound 333] | 1 to 20 (≈ 0.443 to 8.85 µg/mL) | < 1 |  | 
COc1ccc(NC(=O)c2cc3sc(N4CCC(CO)CC4)nc3s2)cc1 [Compound 120] | < 1 | < 1 |  | 
Cc1nc2cc(NC(=O)c3cc4sc(N(C)CC(O)C(F)(F)F)nc4s3)ccc2o1 (stereo not shown) [Compound 261] | < 1 | < 1 |  | 
O=C(Nc1ccc(-c2ccc(F)nc2)cc1)c1cc2sc(NCC(O)C(F)(F)F)nc2s1 (stereo not shown) [Compound 341] | 1 to 20 (≈ 0.482 to 9.65 µg/mL) | < 1 |  | 
O=C(Nc1ccc(-c2ccc(F)cn2)cc1)c1cc2sc(NCC(O)C(F)(F)F)nc2s1 (stereo not shown) [Compound 340] | 1 to 20 (≈ 0.482 to 9.65 µg/mL) | < 1 |  | 
Cc1ccc(-c2ccc(NC(=O)c3cc4sc(N5CCC(C(=O)N(C)C)CC5)nc4s3)cc2)cn1.Cl [Compound 208] |  |  | +++ (+++ indicates <1 uM) | +++ (+++ indicates <1 uM)
CC1CCN(c2ccc(NC(=O)c3cc4sc(N5CCNCC5)nc4s3)cc2)CC1 [Compound 344] | 1 to 20 (≈ 0.442 to 8.83 µg/mL) | < 1 |  | 

Reference: patent US11279714B2, “Anti-infective compounds” (priority 2014, dated 2022)
